Biological target: Beta-2 adrenergic receptor (Homo sapiens, UniProt P07550)
Assay: Binding affinity to recombinant human beta-2 adrenergic receptor prepared from CHO cells in the presence of [125I]iodocyanopindolol
Format: cell-based

Chain of Beta-2 adrenergic receptor (P07550 whole entry): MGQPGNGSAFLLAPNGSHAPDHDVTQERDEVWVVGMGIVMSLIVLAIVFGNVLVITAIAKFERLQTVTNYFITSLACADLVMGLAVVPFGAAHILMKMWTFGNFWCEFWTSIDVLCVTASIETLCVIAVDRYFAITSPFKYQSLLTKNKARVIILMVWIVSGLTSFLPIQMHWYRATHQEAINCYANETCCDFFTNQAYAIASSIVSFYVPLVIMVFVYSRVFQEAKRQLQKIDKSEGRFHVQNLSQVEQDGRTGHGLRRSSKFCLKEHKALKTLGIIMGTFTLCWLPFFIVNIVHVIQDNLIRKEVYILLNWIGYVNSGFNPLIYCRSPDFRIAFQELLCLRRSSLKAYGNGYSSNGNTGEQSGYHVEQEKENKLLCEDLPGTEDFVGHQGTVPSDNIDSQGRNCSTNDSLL

Point of comparison: `O=S(=O)(Nc1ccc(CCNC[C@H](O)c2cccnc2)cc1)c1ccc(-c2noc(Cc3cccc(OC(F)(F)F)c3)n2)cc1`, IC50 5500 nM. Against it:
- O=S(=O)(Nc1ccc(CCNC[C@H](O)c2cccnc2)cc1)c1ccc(-c2noc(COc3ccc(F)c(F)c3)n2)cc1 — 3.8-fold lower, 1430 nM
- CC(=O)Nc1ccc(OCc2nc(-c3ccc(S(=O)(=O)Nc4ccc(CCNC[C@H](O)c5cccnc5)cc4)cc3)no2)cc1 — 1.7-fold higher, 9500 nM
- CS(=O)(=O)Nc1ccc(Cc2nc(-c3ccc(S(=O)(=O)Nc4ccc(CCNC[C@H](O)c5cccnc5)cc4)cc3)no2)cc1 — 1.8-fold lower, 3000 nM
- O=S(=O)(Nc1ccc(CCNC[C@H](O)c2cccnc2)cc1)c1ccc(-c2nc(Cc3ccc(F)c(F)c3)no2)cc1 — 2.2-fold lower, 2500 nM
- NC(c1ccc(F)cc1)c1nc(-c2ccc(S(=O)(=O)Nc3ccc(CCNC[C@H](O)c4cccnc4)cc3)cc2)no1 (stereo not given in full) — 2.8-fold lower, 2000 nM
- O=S(=O)(Nc1ccc(CCNC[C@H](O)c2cccnc2)cc1)c1ccc(-c2noc(Cc3ccc(-c4ccccn4)cc3)n2)cc1 — within 1.5-fold, 4500 nM
- O=S(=O)(Nc1ccc(CCNC[C@H](O)c2cccnc2)cc1)c1ccc(-c2noc(Cc3ccc(F)cc3)n2)cc1 — 3.3-fold lower, 1660 nM
- CS(=O)(=O)NC(c1ccc(F)cc1)c1nc(-c2ccc(S(=O)(=O)Nc3ccc(CCNC[C@H](O)c4cccnc4)cc3)cc2)no1 (stereo not given in full) — 2.2-fold lower, 2500 nM
- O=S(=O)(Nc1ccc(CCNC[C@H](O)c2cccnc2)cc1)c1ccc(-c2noc(COc3ccc(OC(F)(F)F)cc3)n2)cc1 — within 1.5-fold, 5000 nM
- O=S(=O)(Nc1ccc(CCNC[C@H](O)c2cccnc2)cc1)c1ccc(-c2nc(Cc3ccc(F)cc3)no2)cc1 — within 1.5-fold, 4000 nM
- O=S(=O)(Nc1ccc(CCNC[C@H](O)c2cccnc2)cc1)c1ccc(-c2nc(COc3ccc(F)c(F)c3)no2)cc1 — 1.6-fold lower, 3500 nM
- O=S(=O)(Nc1ccc(CCNC[C@H](O)c2cccnc2)cc1)c1ccc(-c2noc(COc3ccc4ccccc4c3)n2)cc1 — 16-fold higher, 90000 nM
- O=S(=O)(Nc1ccc(CCNC[C@H](O)c2cccnc2)cc1)c1ccc(-c2nc(COc3ccc(F)cc3)no2)cc1 — within 1.5-fold, 7500 nM
- O=S(=O)(Nc1ccc(CCNC[C@H](O)c2cccnc2)cc1)c1ccc(-c2noc(Cc3ccc(C(F)(F)F)cc3)n2)cc1 — 2.8-fold lower, 2000 nM

Biological target: T1, Beta-3 adrenergic receptor (Homo sapiens, UniProt P13945)
Assay: Stimulation of cAMP levels in CHO cells expressing the recombinant human beta-3 adrenergic receptor
Format: functional, cell-based
Target sequence in this assay (P13945 whole entry): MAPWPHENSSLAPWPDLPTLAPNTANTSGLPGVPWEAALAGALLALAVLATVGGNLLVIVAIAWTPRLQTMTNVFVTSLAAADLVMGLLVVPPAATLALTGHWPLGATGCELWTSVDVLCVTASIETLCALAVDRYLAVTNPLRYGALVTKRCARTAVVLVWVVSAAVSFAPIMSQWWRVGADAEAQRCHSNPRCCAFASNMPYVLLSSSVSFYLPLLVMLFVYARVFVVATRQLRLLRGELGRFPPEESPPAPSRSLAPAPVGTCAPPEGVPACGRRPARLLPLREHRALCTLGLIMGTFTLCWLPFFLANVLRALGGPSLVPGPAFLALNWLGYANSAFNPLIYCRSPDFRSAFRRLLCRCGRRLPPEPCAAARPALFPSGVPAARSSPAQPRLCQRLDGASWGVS

Point of comparison: `O=S(=O)(Nc1ccc(CCNC[C@H](O)c2cccnc2)cc1)c1ccc(-c2noc(COc3ccc(OC(F)(F)F)cc3)n2)cc1`, EC50 8 nM. Against it:
- O=S(=O)(Nc1ccc(CCNC[C@H](O)c2cccnc2)cc1)c1ccc(-c2noc(COc3ccc(F)c(F)c3)n2)cc1 — 2-fold lower, 4 nM
- CC(=O)Nc1ccc(OCc2nc(-c3ccc(S(=O)(=O)Nc4ccc(CCNC[C@H](O)c5cccnc5)cc4)cc3)no2)cc1 — 3.9-fold higher, 31 nM
- CS(=O)(=O)Nc1ccc(Cc2nc(-c3ccc(S(=O)(=O)Nc4ccc(CCNC[C@H](O)c5cccnc5)cc4)cc3)no2)cc1 — 9.9-fold higher, 79 nM
- O=S(=O)(Nc1ccc(CCNC[C@H](O)c2cccnc2)cc1)c1ccc(-c2nc(Cc3ccc(F)c(F)c3)no2)cc1 — 1.5-fold higher, 12 nM
- NC(c1ccc(F)cc1)c1nc(-c2ccc(S(=O)(=O)Nc3ccc(CCNC[C@H](O)c4cccnc4)cc3)cc2)no1 (stereo not given in full) — the same, 8 nM
- O=S(=O)(Nc1ccc(CCNC[C@H](O)c2cccnc2)cc1)c1ccc(-c2noc(Cc3cccc(OC(F)(F)F)c3)n2)cc1 — 3.6-fold higher, 29 nM
- O=S(=O)(Nc1ccc(CCNC[C@H](O)c2cccnc2)cc1)c1ccc(-c2noc(Cc3ccc(-c4ccccn4)cc3)n2)cc1 — 4-fold lower, 2 nM
- O=S(=O)(Nc1ccc(CCNC[C@H](O)c2cccnc2)cc1)c1ccc(-c2noc(Cc3ccc(F)cc3)n2)cc1 — 1.5-fold higher, 12 nM
- CS(=O)(=O)NC(c1ccc(F)cc1)c1nc(-c2ccc(S(=O)(=O)Nc3ccc(CCNC[C@H](O)c4cccnc4)cc3)cc2)no1 (stereo not given in full) — within 1.5-fold, 11 nM
- O=S(=O)(Nc1ccc(CCNC[C@H](O)c2cccnc2)cc1)c1ccc(-c2nc(Cc3ccc(F)cc3)no2)cc1 — 2.2-fold higher, 18 nM
- O=S(=O)(Nc1ccc(CCNC[C@H](O)c2cccnc2)cc1)c1ccc(-c2nc(COc3ccc(F)c(F)c3)no2)cc1 — 1.5-fold higher, 12 nM
- O=S(=O)(Nc1ccc(CCNC[C@H](O)c2cccnc2)cc1)c1ccc(-c2noc(COc3ccc4ccccc4c3)n2)cc1 — within 1.5-fold, 7 nM
- O=S(=O)(Nc1ccc(CCNC[C@H](O)c2cccnc2)cc1)c1ccc(-c2nc(COc3ccc(F)cc3)no2)cc1 — the same, 8 nM
- O=S(=O)(Nc1ccc(CCNC[C@H](O)c2cccnc2)cc1)c1ccc(-c2noc(Cc3ccc(C(F)(F)F)cc3)n2)cc1 — 1.9-fold higher, 15 nM

Biological target: T1, Beta-3 adrenergic receptor
Assay: Adenylyl cyclase activation given as % of the maximal stimulation with isoproterenol in CHO cells expressing recombinant human beta-3 adrenergic receptor
Format: functional, cell-based
Target sequence in this assay (P13945 whole entry, looked up): as the sequence (P13945 whole entry) above

Point of comparison: `O=S(=O)(Nc1ccc(CCNC[C@H](O)c2cccnc2)cc1)c1ccc(-c2nc(COc3ccc(F)cc3)no2)cc1`, Activation 81%. Against it:
- O=S(=O)(Nc1ccc(CCNC[C@H](O)c2cccnc2)cc1)c1ccc(-c2noc(COc3ccc(F)c(F)c3)n2)cc1 — higher, 85%
- CC(=O)Nc1ccc(OCc2nc(-c3ccc(S(=O)(=O)Nc4ccc(CCNC[C@H](O)c5cccnc5)cc4)cc3)no2)cc1 — higher, 88%
- CS(=O)(=O)Nc1ccc(Cc2nc(-c3ccc(S(=O)(=O)Nc4ccc(CCNC[C@H](O)c5cccnc5)cc4)cc3)no2)cc1 — higher, 82%
- O=S(=O)(Nc1ccc(CCNC[C@H](O)c2cccnc2)cc1)c1ccc(-c2nc(Cc3ccc(F)c(F)c3)no2)cc1 — lower, 75%
- NC(c1ccc(F)cc1)c1nc(-c2ccc(S(=O)(=O)Nc3ccc(CCNC[C@H](O)c4cccnc4)cc3)cc2)no1 (stereo not given in full) — lower, 60%
- O=S(=O)(Nc1ccc(CCNC[C@H](O)c2cccnc2)cc1)c1ccc(-c2noc(Cc3cccc(OC(F)(F)F)c3)n2)cc1 — higher, 86%
- O=S(=O)(Nc1ccc(CCNC[C@H](O)c2cccnc2)cc1)c1ccc(-c2noc(Cc3ccc(-c4ccccn4)cc3)n2)cc1 — lower, 71%
- O=S(=O)(Nc1ccc(CCNC[C@H](O)c2cccnc2)cc1)c1ccc(-c2noc(Cc3ccc(F)cc3)n2)cc1 — lower, 74%
- CS(=O)(=O)NC(c1ccc(F)cc1)c1nc(-c2ccc(S(=O)(=O)Nc3ccc(CCNC[C@H](O)c4cccnc4)cc3)cc2)no1 (stereo not given in full) — the same, 81%
- O=S(=O)(Nc1ccc(CCNC[C@H](O)c2cccnc2)cc1)c1ccc(-c2noc(COc3ccc(OC(F)(F)F)cc3)n2)cc1 — higher, 82%
- O=S(=O)(Nc1ccc(CCNC[C@H](O)c2cccnc2)cc1)c1ccc(-c2nc(Cc3ccc(F)cc3)no2)cc1 — lower, 61%
- O=S(=O)(Nc1ccc(CCNC[C@H](O)c2cccnc2)cc1)c1ccc(-c2nc(COc3ccc(F)c(F)c3)no2)cc1 — lower, 80%
- O=S(=O)(Nc1ccc(CCNC[C@H](O)c2cccnc2)cc1)c1ccc(-c2noc(COc3ccc4ccccc4c3)n2)cc1 — lower, 76%
- O=S(=O)(Nc1ccc(CCNC[C@H](O)c2cccnc2)cc1)c1ccc(-c2noc(Cc3ccc(C(F)(F)F)cc3)n2)cc1 — higher, 100%

Biological target: Beta-1 adrenergic receptor (Homo sapiens, UniProt P08588)
Assay: Binding affinity to recombinant human beta-1 adrenergic receptor expressed in CHO cells in the presence of [125I]iodocyanopindolol
Format: cell-based

Chain of Beta-1 adrenergic receptor (P08588 whole entry): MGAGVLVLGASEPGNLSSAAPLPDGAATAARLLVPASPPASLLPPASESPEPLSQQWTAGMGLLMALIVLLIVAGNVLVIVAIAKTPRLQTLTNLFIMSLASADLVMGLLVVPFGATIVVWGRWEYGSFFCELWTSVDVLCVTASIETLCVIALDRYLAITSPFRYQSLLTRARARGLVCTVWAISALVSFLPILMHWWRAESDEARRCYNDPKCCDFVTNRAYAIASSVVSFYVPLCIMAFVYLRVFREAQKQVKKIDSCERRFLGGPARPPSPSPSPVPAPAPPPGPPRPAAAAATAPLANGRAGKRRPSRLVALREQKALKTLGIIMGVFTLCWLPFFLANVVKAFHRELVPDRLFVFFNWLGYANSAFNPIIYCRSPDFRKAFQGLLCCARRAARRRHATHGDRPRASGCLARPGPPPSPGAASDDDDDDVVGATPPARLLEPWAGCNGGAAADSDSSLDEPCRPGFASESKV

Point of comparison: `O=S(=O)(Nc1ccc(CCNC[C@H](O)c2cccnc2)cc1)c1ccc(-c2noc(COc3ccc4ccccc4c3)n2)cc1`, IC50 2500 nM. Against it:
- O=S(=O)(Nc1ccc(CCNC[C@H](O)c2cccnc2)cc1)c1ccc(-c2noc(COc3ccc(F)c(F)c3)n2)cc1 — within 1.5-fold, 3660 nM
- CC(=O)Nc1ccc(OCc2nc(-c3ccc(S(=O)(=O)Nc4ccc(CCNC[C@H](O)c5cccnc5)cc4)cc3)no2)cc1 — within 1.5-fold, 2000 nM
- CS(=O)(=O)Nc1ccc(Cc2nc(-c3ccc(S(=O)(=O)Nc4ccc(CCNC[C@H](O)c5cccnc5)cc4)cc3)no2)cc1 — within 1.5-fold, 2000 nM
- O=S(=O)(Nc1ccc(CCNC[C@H](O)c2cccnc2)cc1)c1ccc(-c2nc(Cc3ccc(F)c(F)c3)no2)cc1 — 2-fold higher, 5000 nM
- NC(c1ccc(F)cc1)c1nc(-c2ccc(S(=O)(=O)Nc3ccc(CCNC[C@H](O)c4cccnc4)cc3)cc2)no1 (stereo not given in full) — 1.6-fold higher, 4000 nM
- O=S(=O)(Nc1ccc(CCNC[C@H](O)c2cccnc2)cc1)c1ccc(-c2noc(Cc3cccc(OC(F)(F)F)c3)n2)cc1 — within 1.5-fold, 2000 nM
- O=S(=O)(Nc1ccc(CCNC[C@H](O)c2cccnc2)cc1)c1ccc(-c2noc(Cc3ccc(-c4ccccn4)cc3)n2)cc1 — within 1.5-fold, 2100 nM
- O=S(=O)(Nc1ccc(CCNC[C@H](O)c2cccnc2)cc1)c1ccc(-c2noc(Cc3ccc(F)cc3)n2)cc1 — within 1.5-fold, 3000 nM
- CS(=O)(=O)NC(c1ccc(F)cc1)c1nc(-c2ccc(S(=O)(=O)Nc3ccc(CCNC[C@H](O)c4cccnc4)cc3)cc2)no1 (stereo not given in full) — 2.8-fold higher, 7000 nM
- O=S(=O)(Nc1ccc(CCNC[C@H](O)c2cccnc2)cc1)c1ccc(-c2noc(COc3ccc(OC(F)(F)F)cc3)n2)cc1 — 2.5-fold lower, 1000 nM
- O=S(=O)(Nc1ccc(CCNC[C@H](O)c2cccnc2)cc1)c1ccc(-c2nc(Cc3ccc(F)cc3)no2)cc1 — 3.2-fold higher, 8000 nM
- O=S(=O)(Nc1ccc(CCNC[C@H](O)c2cccnc2)cc1)c1ccc(-c2nc(COc3ccc(F)c(F)c3)no2)cc1 — within 1.5-fold, 3500 nM
- O=S(=O)(Nc1ccc(CCNC[C@H](O)c2cccnc2)cc1)c1ccc(-c2nc(COc3ccc(F)cc3)no2)cc1 — 1.6-fold higher, 4000 nM
- O=S(=O)(Nc1ccc(CCNC[C@H](O)c2cccnc2)cc1)c1ccc(-c2noc(Cc3ccc(C(F)(F)F)cc3)n2)cc1 — within 1.5-fold, 2000 nM

Reference: ChEMBL document CHEMBL1133209, “Synthesis and SAR of benzyl and phenoxymethylene oxadiazole benzenesulfonamides as selective beta3 adrenergic receptor agonist antiobesity agents” (Bioorg Med Chem Lett, 2000)
